Biological target: T1, progesterone receptors of rabbit uterus (Oryctolagus cuniculus, UniProt P06186)
T1 construct: The first test was on the progesterone receptors of rabbit uterus; from tissue; host or cells: uterus of estradiol-treated immature rabbits, 105,000 g supernatant (cytosol)
T1 sequence (P06186 1-930): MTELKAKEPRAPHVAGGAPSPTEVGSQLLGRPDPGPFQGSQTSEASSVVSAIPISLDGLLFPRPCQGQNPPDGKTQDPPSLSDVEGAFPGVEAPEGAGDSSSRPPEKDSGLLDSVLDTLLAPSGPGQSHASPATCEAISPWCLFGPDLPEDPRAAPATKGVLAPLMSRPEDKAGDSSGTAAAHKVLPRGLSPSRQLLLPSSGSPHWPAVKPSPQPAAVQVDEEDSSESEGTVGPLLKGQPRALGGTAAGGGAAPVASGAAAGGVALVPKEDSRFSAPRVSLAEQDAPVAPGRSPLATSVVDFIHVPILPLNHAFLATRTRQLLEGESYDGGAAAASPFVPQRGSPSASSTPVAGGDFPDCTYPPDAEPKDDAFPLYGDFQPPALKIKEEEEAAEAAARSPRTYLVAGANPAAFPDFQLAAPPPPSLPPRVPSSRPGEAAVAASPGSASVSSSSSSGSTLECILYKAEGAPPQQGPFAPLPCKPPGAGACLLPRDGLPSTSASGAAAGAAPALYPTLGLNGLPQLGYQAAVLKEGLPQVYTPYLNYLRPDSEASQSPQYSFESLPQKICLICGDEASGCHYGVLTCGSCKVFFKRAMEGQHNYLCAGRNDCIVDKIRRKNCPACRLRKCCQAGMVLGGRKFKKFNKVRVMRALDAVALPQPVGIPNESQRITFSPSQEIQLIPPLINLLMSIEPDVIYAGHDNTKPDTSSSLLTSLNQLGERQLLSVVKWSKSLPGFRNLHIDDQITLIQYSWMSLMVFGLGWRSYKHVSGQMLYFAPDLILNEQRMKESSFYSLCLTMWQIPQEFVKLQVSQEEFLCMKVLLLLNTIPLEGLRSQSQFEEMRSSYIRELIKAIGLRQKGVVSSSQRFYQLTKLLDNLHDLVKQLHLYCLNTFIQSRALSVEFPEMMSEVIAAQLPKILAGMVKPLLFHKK
Test: Relative binding affinity (ARL), progesterone receptors of rabbit uterus
Conditions: rabbit uterus cytosol, tritiated 17,21-dimethyl-19-nor-Δ4,9-pregnadiene-3,20-dione, cold reference hormone progesterone; for relative affinity of the bond (ARL), Progestogen, 2H: incubation 2H at 0° C.; for relative affinity of the bond (ARL), Progestogen, 24H: incubation 24H at 0° C.
Protocol: The first test was on the progesterone receptors of rabbit uterus in which immature rabbits weighing about 1 kg received a cutaneous application of […] of estradiol and 5 days after treatment, the animals were sacrificed. The […] was removed, weighed and homogenized at 0° C. with a Potter Teflon-glass ina buffered solution. TS (Tris 10 mM, 0.25M Saccharose, HCl, pH 7.4) (1 g of tissue per 50 ml of TS). The homogenate was ultracentrifuged at 105,000 g×90 minutes at 0° C. The surnageant samples were incubated at a time at (t) 0° C. with a constant concentration (T) of tritiated product (R) which is 17,21-dimethyl-19-nor-Δ^4,9 -pregnadiene-3,20-dione in the presence of increasing concentrations from 0 to 2500×10^-9 M or cold R or cold progestenone or cold test compound. The concentration of bound tritiated R was measured for each incubate by absorption technique on dextran carbon.
The relative affinity of the bond (ARL) was calculated in the same for the receptors. One traced the following 2 curves: the percentage of bond tritiated hormone B/T as a logarithmic function of the concentration of the cold reference hormone and B/T as a logarithmic function of the concentration of the cold test compound. Using the equation [formula] B/T max.=% of bound tritiated hormone for one incubation of tritiated hormone at concentration (T)
B/T min.=% of bound tritiated hormone for one incubation of tritiated hormone at a concentration T in the presence of a great excess of cold hormone (2500×10^-9 M).
The intersections of I50 lines and the curves permit an evaluation of the hormone concentration of the cold reference (CH) and the cold test compound (CX) which inhibited by 50% the bounding of tritiated hormone to the receptor. The ARL of the test compound was determined by the equation. [formula] and the following results were obtained.

Question: How did the “relative affinity of the bond (ARL), Progestogen, 2H” value turn out when `CN(C)c1ccc([C@H]2C[C@@]3(C)[C@@H](CC[C@@]3(O)c3ccc(N(C)C)cc3)[C@@H]3CCC4=CC(=O)CCC4=C32)cc1` [Example 2, 11β,17α-bis-(4-dimethylamino-phenyl)-Δ^4,9-estradiene-17β-ol-3-one] was run?
Answer: 32

Question: What about the “relative affinity of the bond (ARL), Progestogen, 24H” value of the same molecule?
Answer: 183

Question: `COc1ccc([C@]2(O)CC[C@H]3[C@@H]4CCC5=CC(=O)CCC5=C4[C@@H](c4ccc(N(C)C)cc4)C[C@@]32C)cc1` [Example 4, 11β-(4-dimethylamino-phenyl)-17α-(4-methoxy-phenyl)-Δ^4,9-estradiene-17β-ol-3-one] was tested. Which “relative affinity of the bond (ARL), Progestogen, 2H” value did it give?
Answer: 51

Question: And the “relative affinity of the bond (ARL), Progestogen, 24H” value?
Answer: 264
